Test results as given in patent publication US11464854B2, “Methods and compositions relating to adjuvants” (Children's Medical Center Corporation, priority 2017, dated 2022).

Columns and labels:
[1] = tested on: TNF; assay: Rat pharmacodynamics: serum TNF by ELISA; format: in vivo, rats; settings: rat, in vivo, sc
[2] = tested on: cytokine and IFN-inducible gene expression in draining lymph nodes and spleen; format: in vivo, mice; settings: mouse, in vivo, sc

CCOCc1nc2c(N)nc3ccccc3c2n1CC(C)(C)O [R848, Resiquimod, reference compound]
Blood tumor necrosis factor (TNF) concentrations, peak [1]: ~1,000 pg/ml | time of peak cytokine mRNA expression [2]: 1 to 3 h
